{
  "source": "patent US11767504B2",
  "about": "“Albumin compositions and methods of producing and using same” (Albcura Corporation, priority 2020, dated 2023)",
  "tested_on": "Insulin",
  "experiment": "Assay of insulin aggregation stabilization by various albumin (absorbance at 360 nm)",
  "assay_type": "biochemical",
  "conditions": "1−(A360 with albumin)/(A360 of (−) group), at time point where control A360 near 0.35; albumin samples 2 mg/mL mixed 1:1 with 0.7 mg/mL insulin working solution, 37° C.",
  "description": "Various albumin samples were diluted to 2 mg/mL in purified water. An assay working solution was prepared containing 60 mM of HEPES (pH=7.4), 300 mM of NaCl, 30 mM of 2-mercaptoethanol, and 0.7 mg/mL of Insulin. In a 96-well plate, 100 μL of the assay working solution was mixed with 100 μL of each albumin sample. The plate was incubated at 37° C. inside a plate reader, and the absorbance at 360 nm was measured every 30 seconds for 60 minutes.\nThe absorbance data at 360 nm (A360) of each group was picked at the time point where the A360 of the control group (without albumin, labeled as (−)) was near 0.35. […] Stabilizing Efficiency %=1−(A360 of experimental group with albumin)/(A360 of (−) group)",
  "data": [
    {"substance": "fatty acid free BSA: Fatty acid-free BSA from Sigma Aldrich (A8806)", "values": [
      {"measurement": "Stabilizing Efficiency", "result": 53, "unit": "%"}
    ]}
  ]
}
